# Where two headings read alike, the source gives them in different places.
# Assays:
# ER = tested on: ER; parameters: method as in Wakeling et al., 1991; settings: ref Wakeling et al., 1991; cited from earlier work
# breast cancer cells = tested on: breast cancer cells; parameters: method as in Wakeling and Bowler, 1987, 1988; settings: ref Wakeling and Bowler, 1987, 1988; cited from earlier work
# [1] = Serum concentrations of ICI 182780 by radioimmunoassay (pharmacokinetics of monthly i.m. depot); type: in vivo, human; settings: for Cmax: human, serum;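 for AUC on entry: AUC over the first monthly dosing interval after the first injection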
# Protocol: Bridsh Journal of Cancer (1996) 74, 300-308 ? […] The agent was administered as a monthly depot intramuscular injection. […] The study was approved by the ethics committees of each clinical centre. Patients were eligible for the study if they were post- menopausal and age less than 81 years, with histologically verified breast cancer. […] Patients were excluded if they had serious intercurrent disease, a WHO performance status of greater than 2, and a life expectancy of less than 3 months or had received previous cytotoxic chemotherapy for advanced breast cancer. […] Patients 5-19 received 250 mg month-1 i.m. from the outset. […] Tumour response to therapy was evaluated according to UICC criteria (Hayward et al., 1977). To qualify for the 'no change' category, tumour growth had to stabilise for more than 6 months (Howell et al., 1988; Robertson et al., 1989). Body weight was recorded at each monthly review in the majority of patients. […] The procedure was applied after solid base clean up of a diethyl ether/hexane extract of serum. The study limit of quantification was 0.68 ng ml-'. […] Gonadotrophins follicle-stimulating hormone and lutenising hormone (FSH and LH) and SHBG were measured by RIA in the Regional Radioimmunoassay Laboratory of the University Hospital of South Manchester. Prolactin was measured by immunoradiometric assay using reagents supplied by Netria. Total cholesterol levels were determined enzymatically using a commercially available reagent (Diamed, Switzerland). Triglyceride levels were determined by the glyceryl phosphate oxidase-peroxidase-antiperox- idase method using a commercially available kit (Boehringer Mannheim, Germany). High-density lipoprotein (HDL) cholesterol levels were measured after pretreatment of the serum samples with buffered magnesium phosphotungstate, which selectively precipitates low-density lipoprotein (LDL) cholesterol, very low-density lipoprotein (VLDL) cholesterol and chylomicrons, leaving HDL cholesterol in the super- natant. Serum levels of LDL cholesterol were calculated using the Friedewald equation (Friedewald et al., 1972). Endometrial assessment Endometrial thickness was measured in transverse section by transabdominal ultrasound using a Siemens Sonoline SL2 with a 3.5 MHz sector probe. Baseline and repeat scans at 3-6 monthly intervals were performed in five patients. […] Pharmacokinectic data were analysed using para- metric statistics. Data relating to body weight, serum gonadotrophin, SHBG and lipid levels were analysed using non-parametric statistics. The null hypothesis was rejected at a probability level of P<0.05. […] However, samples were not available between day 2 and day 8.
# [2] = 250 mg monthly i.m., first month
# [3] = 250 mg monthly i.m., sixth month
# [4] = patient 5 (partial response), 250 mg
# [5] = patient 8 (partial response), 250 mg
# [6] = patient 10 (partial response), 250 mg
# [7] = patient 13 (progressive disease), 250 mg
# [8] = patient 14 (partial response), 250 mg
# [9] = patient 16 (partial response), 250 mg
compound,measurement,setting,value
"C[C@]12CC[C@@H]3c4ccc(O)cc4C[C@@H](CCCCCCCCC[S+]([O-])CCCC(F)(F)C(F)(F)F)[C@H]3[C@@H]1CC[C@@H]2O (some centres unmarked) [ICI 182780, 7a-[9(4,4,5,5,pentafluoropentyl-sulphinyl)nonyl]oestra-1 ,3,5,(10)-triene-3,17,B-diol]",Potency and affinity for the ER relative to ICI 164384,ER,greater potency and affinity for the ER
same,Potency as inhibitor of cell growth in vitro relative to tamoxifen,breast cancer cells,up to two orders of magnitude more potent than tamoxifen
same,"AUC, first month",[1]; [2],140.5 ng·days/mL
same,"Mean end-of-month concentration, first month",[1]; [2],3.1 ng/mL
same,"AUC, sixth month",[1]; [3],206.8 ng·days/mL
same,"Mean end-of-month concentration, sixth month",[1]; [3],5.6 ng/mL
same,"Difference in Cmax and AUC, partial response vs no change patients",[1]; after 6 months of treatment,no significant difference
same,Increase in AUC,[1]; after 6 months vs month 1,50%
same,Increase in mean end of month drug levels,[1]; after 6 months vs month 1,80%
same,Cmax,"[1]; female, im, 250 mg, 250 mg monthly i.m., first month, read-out: Cmax, first month (mean)",10.5 ng/mL
same,Cmax,"[1]; female, im, 250 mg, 250 mg monthly i.m., sixth month, read-out: Cmax, sixth month (mean)",12.6 ng/mL
same,Cmax,"[1]; female, intramuscular, no change patients, read-out: Median Cmax at month 6",12.8 ng/mL
same,Cmax,"[1]; female, intramuscular, no change patients, read-out: Median Cmax on entry",9.3 ng/mL
same,Cmax,"[1]; female, intramuscular, partial response patients, read-out: Median Cmax at month 6",11 ng/mL
same,Cmax,"[1]; female, intramuscular, partial response patients, read-out: Median Cmax on entry",7.7 ng/mL
same,Cmax,"[1]; female, intramuscular, progressive disease patients, read-out: Median Cmax on entry",5.6 ng/mL
same,Release of drug from slow release formulation,[1]; following both the 100 mg and 250 mg doses,continuous release of drug
same,Cmax,"[1]; intramuscular, 100 mg, patient 1 (progressive disease), 100 mg dose at entry, read-out: Cmax on entry",4.4 ng/mL
same,Cmax,"[1]; intramuscular, 100 mg, patient 2 (no change), 100 mg dose at entry, read-out: Cmax on entry",1.8 ng/mL
same,Cmax,"[1]; intramuscular, 100 mg, patient 3 (partial response), 100 mg dose at entry, read-out: Cmax on entry",2.9 ng/mL
same,Cmax,"[1]; intramuscular, 100 mg, patient 4 (progressive disease), 100 mg dose at entry, read-out: Cmax on entry",1.6 ng/mL
same,Cmax,"[1]; intramuscular, 250 mg, patient 2 (no change), 250 mg, read-out: Cmax at month 6",7.5 ng/mL
same,Cmax,"[1]; intramuscular, 250 mg, patient 3 (partial response), 250 mg, read-out: Cmax at month 6",9.9 ng/mL
same,Cmax,"[1]; intramuscular, 250 mg, patient 5 (partial response), 250 mg, read-out: Cmax at month 6",17.6 ng/mL
same,Cmax,"[1]; intramuscular, 250 mg, patient 5 (partial response), 250 mg, read-out: Cmax on entry",17.4 ng/mL
same,Cmax,"[1]; intramuscular, 250 mg, patient 6 (partial response), 250 mg, read-out: Cmax on entry",7.7 ng/mL
same,Cmax,"[1]; intramuscular, 250 mg, patient 7 (progressive disease), 250 mg, read-out: Cmax on entry",5.5 ng/mL
same,Cmax,"[1]; intramuscular, 250 mg, patient 8 (partial response), 250 mg, read-out: Cmax at month 6",10 ng/mL
same,Cmax,"[1]; intramuscular, 250 mg, patient 8 (partial response), 250 mg, read-out: Cmax on entry",5.9 ng/mL
same,Cmax,"[1]; intramuscular, 250 mg, patient 9 (progressive disease), 250 mg, read-out: Cmax on entry",9.7 ng/mL
same,Cmax,"[1]; intramuscular, 250 mg, patient 10 (partial response), 250 mg, read-out: Cmax at month 6",9.1 ng/mL
same,Cmax,"[1]; intramuscular, 250 mg, patient 10 (partial response), 250 mg, read-out: Cmax on entry",14.8 ng/mL
same,Cmax,"[1]; intramuscular, 250 mg, patient 11 (progressive disease), 250 mg, read-out: Cmax on entry",29.9 ng/mL
same,Cmax,"[1]; intramuscular, 250 mg, patient 12 (no change), 250 mg, read-out: Cmax at month 6",12.2 ng/mL
same,Cmax,"[1]; intramuscular, 250 mg, patient 12 (no change), 250 mg, read-out: Cmax on entry",7.2 ng/mL
same,Cmax,"[1]; intramuscular, 250 mg, patient 13 (progressive disease), 250 mg, read-out: Cmax at month 6",15.8 ng/mL
same,Cmax,"[1]; intramuscular, 250 mg, patient 13 (progressive disease), 250 mg, read-out: Cmax on entry",5.6 ng/mL
same,Cmax,"[1]; intramuscular, 250 mg, patient 14 (partial response), 250 mg, read-out: Cmax at month 6",13.5 ng/mL
same,Cmax,"[1]; intramuscular, 250 mg, patient 14 (partial response), 250 mg, read-out: Cmax on entry",9.1 ng/mL
same,Cmax,"[1]; intramuscular, 250 mg, patient 15 (no change), 250 mg, read-out: Cmax at month 6",15.8 ng/mL
same,Cmax,"[1]; intramuscular, 250 mg, patient 15 (no change), 250 mg, read-out: Cmax on entry",9 ng/mL
same,Cmax,"[1]; intramuscular, 250 mg, patient 16 (partial response), 250 mg, read-out: Cmax at month 6",12 ng/mL
same,Cmax,"[1]; intramuscular, 250 mg, patient 16 (partial response), 250 mg, read-out: Cmax on entry",4.4 ng/mL
same,Cmax,"[1]; intramuscular, 250 mg, patient 17 (no change), 250 mg, read-out: Cmax at month 6",14.9 ng/mL
same,Cmax,"[1]; intramuscular, 250 mg, patient 17 (no change), 250 mg, read-out: Cmax on entry",9.5 ng/mL
same,Cmax,"[1]; intramuscular, 250 mg, patient 18 (no change), 250 mg, read-out: Cmax at month 6",10.2 ng/mL
same,Cmax,"[1]; intramuscular, 250 mg, patient 18 (no change), 250 mg, read-out: Cmax on entry",10.3 ng/mL
same,Cmax,"[1]; intramuscular, 250 mg, patient 19 (no change), 250 mg, read-out: Cmax at month 6",17.2 ng/mL
same,Cmax,"[1]; intramuscular, 250 mg, patient 19 (no change), 250 mg, read-out: Cmax on entry",11 ng/mL
same,Difference in median Cmax and AUC between responders and non-responders,[1]; in vivo,no significant difference
same,Increase in AUC on multiple dosing,"[1]; month 6 vs month 1, 250 mg",1.5 fold
same,Increase in Cmax on multiple dosing,"[1]; month 6 vs month 1, 250 mg",1.2 fold
same,Serum level at day 28 relative to threshold,"[1]; monthly depot i.m., day 28",above the projected therapeutic threshold
same,Median AUC at month 6,[1]; no change patients,190.9 ng·days/mL
same,Median AUC on entry,[1]; no change patients,131.6 ng·days/mL
same,Median AUC at month 6,[1]; partial response patients,191.0 ng·days/mL
same,Median AUC on entry,[1]; partial response patients,118.7 ng·days/mL
same,AUC at month 6,"[1]; patient 2 (no change), 250 mg",135.8 ng·days/mL
same,AUC at month 6,"[1]; patient 3 (partial response), 250 mg",139.5 ng·days/mL
same,AUC at month 6,[1]; [4],203.0 ng·days/mL
same,AUC on entry,[1]; [4],188.4 ng·days/mL
same,AUC on entry,"[1]; patient 6 (partial response), 250 mg",118.3 ng·days/mL
same,AUC on entry,"[1]; patient 7 (progressive disease), 250 mg",105.7 ng·days/mL
same,AUC at month 6,[1]; [5],175.2 ng·days/mL
same,AUC on entry,[1]; [5],118.7 ng·days/mL
same,AUC on entry,"[1]; patient 9 (progressive disease), 250 mg",138.2 ng·days/mL
same,AUC at month 6,[1]; [6],191.7 ng·days/mL
same,AUC on entry,[1]; [6],206.6 ng·days/mL
same,AUC on entry,"[1]; patient 11 (progressive disease), 250 mg",289.3 ng·days/mL
same,AUC at month 6,"[1]; patient 12 (no change), 250 mg",179.3 ng·days/mL
same,AUC on entry,"[1]; patient 12 (no change), 250 mg",143.6 ng·days/mL
same,AUC at month 6,[1]; [7],243.7 ng·days/mL
same,AUC on entry,[1]; [7],36.7 ng·days/mL
same,AUC at month 6,[1]; [8],266.0 ng·days/mL
same,AUC on entry,[1]; [8],134.6 ng·days/mL
same,AUC at month 6,"[1]; patient 15 (no change), 250 mg",201.7 ng·days/mL
same,AUC on entry,"[1]; patient 15 (no change), 250 mg",107.8 ng·days/mL
same,AUC at month 6,[1]; [9],190.8 ng·days/mL
same,AUC on entry,[1]; [9],72.8 ng·days/mL
same,AUC at month 6,"[1]; patient 17 (no change), 250 mg",297.6 ng·days/mL
same,AUC on entry,"[1]; patient 17 (no change), 250 mg",125.5 ng·days/mL
same,AUC at month 6,"[1]; patient 18 (no change), 250 mg",156.1 ng·days/mL
same,AUC on entry,"[1]; patient 18 (no change), 250 mg",183.2 ng·days/mL
same,AUC at month 6,"[1]; patient 19 (no change), 250 mg",308.0 ng·days/mL
same,AUC on entry,"[1]; patient 19 (no change), 250 mg",137.8 ng·days/mL
same,Median AUC on entry,[1]; progressive disease patients,79.4 ng·days/mL
